This is an account of results in patent US6960458B2, “Erythrose reductase, its cDNA and cell which the cDNA express” (Director of National Food Research Institute, Ministry of …, priority 2001, dated 2005).

Series [1] concerns recombinant erythrose reductase type III. The experiment in a line: Substrate specificity of purified recombinant erythrose reductase type III, NADPH consumption at 340 nm. The conditions noted are these: rate with D-erythrose = 100%; 12 mM substrate, 0.2 mM NADPH, 50 mM phosphate buffer pH 6.5, 37° C., 5 minutes. The format is biochemical, Trichosporonoides megachiliensis. How it is done:
(§1) The substrate specificities of the purified recombinant erythrose reductases type III, type II, and type I were compared with that of the erythrose reductase heretofore reported (natural type: H. Ishizuka et al., Biosci. Biotech. Biochem., 56(6), 941-945, 1992).
(§2) In the presence of 50 mM of a phosphate buffer at pH 6.5, 12 mM of a substrate, and 0.2 mM of NADPH, 20 μL of an enzyme was acted (1 mL in total), and a change with time in optical absorbance at 340 nm was measured at 37° C. for 5 minutes.
(§3) With the reaction rate at which erythrose is reduced as a substrate as being 100%, relative values (%) of reaction rates for reducing various ketoses and aldoses are shown in Table 1.

In series [2] the test system is recombinant erythrose reductase type II. The experiment in a line: Substrate specificity of purified recombinant erythrose reductase type II, NADPH consumption at 340 nm. Type of series: biochemical, Trichosporonoides megachiliensis. The conditions noted are these: rate with D-erythrose = 100%; 12 mM substrate, 0.2 mM NADPH, 50 mM phosphate buffer pH 6.5, 37° C., 5 minutes. How it is done: as §1, §2, §3

Series [3] deals with recombinant erythrose reductase type I. Kind of series: Substrate specificity of purified recombinant erythrose reductase type I, NADPH consumption at 340 nm. Type of series: biochemical, Trichosporonoides megachiliensis. The conditions noted are these: rate with D-erythrose = 100%; 12 mM substrate, 0.2 mM NADPH, 50 mM phosphate buffer pH 6.5, 37° C., 5 minutes. As for the experimental part: as §1, §2, §3

For series [4], the system named is natural type erythrose reductase type III. The conditions noted are these: rate with D-erythrose = 100%; 12 mM substrate, 0.2 mM NADPH, 50 mM phosphate buffer pH 6.5, 37° C.; reported natural type (Ishizuka et al. 1992); cited from earlier work.
Series [5] in a line: IEF-PAGE (isoelectric focusing) of purified recombinant erythrose reductases. The format is physicochemical. The conditions noted are these: Phast Gel IEF pH 4-6.5, from mobility of band. How it is done: On the purified recombinant erythrose reductases, IEF-PAGE was carried out with a fully automatic electrophoresis system called Phast System (produced by Amersham Pharmacia Biotech), using a gel (trade name: Phast Gel (IEF pH 4-6.5), manufacturer: Amersham Pharmacia Biotech).
Electrophoresis was conducted using a pH gradient gel, and the separated proteins were stained.
From FIG. 9, the isoelectric point of each enzyme could be confirmed from the mobility of a band.

With `O=C[C@@H](O)[C@H](O)[C@H](O)CO` [D-arabinose], in series [1], the “Relative value (%) of reaction rate, Recombinant type Type III” value came out at 0.0%. Moreover, the “Relative value (%) of reaction rate, Recombinant type Type II” value in series [2] is 0.0%. Moreover, the “Relative value (%) of reaction rate, Recombinant type Type I” value in series [3] is on record as 0.9%. The “Relative value (%) of reaction rate, Normal type Type III” value in series [4] is 0.0%.
`O=C[C@H](O)[C@H](O)CO` [D-erythrose]: the “Relative value (%) of reaction rate, Recombinant type Type III” value in series [1] is recorded as 100.0%. In series [2], the “Relative value (%) of reaction rate, Recombinant type Type II” value was found to be 100.0%. In addition, the “Relative value (%) of reaction rate, Recombinant type Type I” value in series [3] is given as 100.0%. In series [4], the “Relative value (%) of reaction rate, Normal type Type III” value is given as 100.0%.
For `O=C(CO)[C@@H](O)[C@H](O)[C@H](O)CO` [D-fructose], the “Relative value (%) of reaction rate, Recombinant type Type III” value in series [1] is given as 0.0%. Further, in series [2], the “Relative value (%) of reaction rate, Recombinant type Type II” value is 0.0%. In series [3], the “Relative value (%) of reaction rate, Recombinant type Type I” value was 0.0%. For the same molecule, the “Relative value (%) of reaction rate, Normal type Type III” value in series [4] is given as 0.0%.
In the case of `O=C[C@H](O)[C@@H](O)[C@@H](O)[C@H](O)CO` [D-galactose], in series [1], the “Relative value (%) of reaction rate, Recombinant type Type III” value turned out to be 0.0%. In addition, the “Relative value (%) of reaction rate, Recombinant type Type II” value in series [2] was 0.0%. Also, the “Relative value (%) of reaction rate, Recombinant type Type I” value in series [3] came out at 0.0%. Moreover, the “Relative value (%) of reaction rate, Normal type Type III” value in series [4] is on record as 0.0%.
Regarding `O=C[C@H](O)[C@@H](O)[C@H](O)[C@H](O)CO` [D-glucose], the “Relative value (%) of reaction rate, Recombinant type Type III” value in series [1] amounted to 0.0%. In series [2], the “Relative value (%) of reaction rate, Recombinant type Type II” value is 0.0%. Moreover, in series [3], the “Relative value (%) of reaction rate, Recombinant type Type I” value came to 0.0%. Moreover, the “Relative value (%) of reaction rate, Normal type Type III” value in series [4] is 0.0%.
On to `O=C[C@H](O)[C@@H](O)[C@H](O)[C@H](O)C(=O)O` [D-glucuronate], for which the “Relative value (%) of reaction rate, Recombinant type Type III” value in series [1] is on record as 0.8%. Also, the “Relative value (%) of reaction rate, Recombinant type Type II” value in series [2] is on record as 0.0%. Moreover, in series [3], the “Relative value (%) of reaction rate, Recombinant type Type I” value is 0.7%. The “Relative value (%) of reaction rate, Normal type Type III” value in series [4] is reported as 6.6%.
As to `O=C[C@H](O)CO` [D-glyceraldehyde], the “Relative value (%) of reaction rate, Recombinant type Type III” value in series [1] was determined as 98.2%. The “Relative value (%) of reaction rate, Recombinant type Type II” value in series [2] turned out to be 107.8%. Further, in series [3], the “Relative value (%) of reaction rate, Recombinant type Type I” value was found to be 102.0%. Also, in series [4], the “Relative value (%) of reaction rate, Normal type Type III” value was 66.0%.
With `O=C[C@@H](O)[C@@H](O)[C@H](O)[C@H](O)CO` [D-mannose], the “Relative value (%) of reaction rate, Recombinant type Type III” value in series [1] is 0.0%. In addition, the “Relative value (%) of reaction rate, Recombinant type Type II” value in series [2] came out at 0.0%. For the same molecule, in series [3], the “Relative value (%) of reaction rate, Recombinant type Type I” value stood at 0.0%. For the same molecule, the “Relative value (%) of reaction rate, Normal type Type III” value in series [4] is given as 0.0%.
In the case of `O=C[C@H](O)[C@H](O)[C@H](O)CO` [D-ribose], in series [1], the “Relative value (%) of reaction rate, Recombinant type Type III” value is given as 2.3%. Also, the “Relative value (%) of reaction rate, Recombinant type Type II” value in series [2] was found to be 0.7%. Besides, the “Relative value (%) of reaction rate, Recombinant type Type I” value in series [3] was found to be 1.0%. For the same molecule, the “Relative value (%) of reaction rate, Normal type Type III” value in series [4] is recorded as 1.2%.
Regarding `O=C[C@H](O)[C@@H](O)[C@H](O)CO` [D-xylose], in series [1], the “Relative value (%) of reaction rate, Recombinant type Type III” value came out at 4.5%. Besides, the “Relative value (%) of reaction rate, Recombinant type Type II” value in series [2] worked out at 2.4%. Moreover, the “Relative value (%) of reaction rate, Recombinant type Type I” value in series [3] is recorded as 3.2%. Moreover, the “Relative value (%) of reaction rate, Normal type Type III” value in series [4] is given as 1.2%.
Take `O=C(CO)[C@@H](O)[C@H](O)CO` [D-xylulose]: in series [1], the “Relative value (%) of reaction rate, Recombinant type Type III” value is recorded as 7.8%. The “Relative value (%) of reaction rate, Recombinant type Type II” value in series [2] was 3.5%. Further, the “Relative value (%) of reaction rate, Recombinant type Type I” value in series [3] is 7.5%. For the same molecule, the “Relative value (%) of reaction rate, Normal type Type III” value in series [4] was 0.0%.
Take `O=C(CO)[C@@H](O)CO` [L-erythrulose]: in series [4], the “Relative value (%) of reaction rate, Normal type Type III” value is given as 38.0%.
Take `O=C(CO)[C@@H](O)[C@H](O)[C@@H](O)CO` [L-sorbose]: the “Relative value (%) of reaction rate, Recombinant type Type III” value in series [1] was determined as 0.0%. The “Relative value (%) of reaction rate, Recombinant type Type II” value in series [2] came out at 0.0%. In addition, the “Relative value (%) of reaction rate, Recombinant type Type I” value in series [3] stood at 0.0%. Also, in series [4], the “Relative value (%) of reaction rate, Normal type Type III” value is listed as 0.0%.
`OC[C@H]1O[C@H](O[C@H]2O[C@H](CO)[C@@H](O)[C@H](O)[C@H]2O)[C@H](O)[C@@H](O)[C@@H]1O` [Trehalose]: the “Relative value (%) of reaction rate, Recombinant type Type III” value in series [1] is 0.0%. The “Relative value (%) of reaction rate, Recombinant type Type II” value in series [2] is 0.0%. Moreover, in series [3], the “Relative value (%) of reaction rate, Recombinant type Type I” value was 0.0%. Moreover, the “Relative value (%) of reaction rate, Normal type Type III” value in series [4] is recorded as 0.0%.
Consider `O=Cc1ccc([N+](=O)[O-])cc1` [p-nitrobenzaldehyde], for which the “Relative value (%) of reaction rate, Recombinant type Type III” value in series [1] is 66.3%. For the same molecule, the “Relative value (%) of reaction rate, Recombinant type Type II” value in series [2] is 8.8%. In addition, the “Relative value (%) of reaction rate, Recombinant type Type I” value in series [3] was 11.5%. Further, the “Relative value (%) of reaction rate, Normal type Type III” value in series [4] is on record as 46.0%.

B1: purified recombinant erythrose reductase type II: recombinant enzyme of SEQ. ID No. 4 expressed in E. coli, histidine Tag cleaved (protein)
chain: MSYKQYIPLNDGNKIPALGFGTWQAEPGQVGASVKNAVKAGYRHLDLAKVYQNQSEIGVALQELFDQGIVKREDLFITSKVWNNRHAPEHVEPALDETLKELGLSYLDLYLIHWPVAFKFTTPQELFPTEPDNKELAAIDDSIKLVDTWKAVVALKKTGKTKSVGVSNFTTDLVDLVEKASGERPAVNQIEAHPLLQQDELVAHHKSKNIVITAYSPLGNNVSGKPPLTQNPGIEATAKRLNHTPAAVLLAWGIQRGYSVLVKSVTPSRIESNYDQITLSPEEFQKVTDLIKEYGESRNNIPLNYKPSWPISVFGTSDEAKATHKINTNL
For the molecule B1, the “isoelectric point (pI)” value in series [5] is given as 5.3.

B2: purified recombinant erythrose reductase type III: recombinant enzyme of SEQ. ID No. 2 expressed in E. coli, histidine Tag cleaved (protein)
chain: B1 chain
With B2, the “isoelectric point (pI)” value in series [5] is on record as 5.8.

B3: purified recombinant erythrose reductase type I: recombinant enzyme of SEQ. ID No. 6 expressed in E. coli, histidine Tag cleaved (protein)
chain: MSYNKNIPLNDGNSIPALGYGTWQAEPGQVGEGVKLAVKAGYRHLDLAKVYQNQTEIGQALKELFDEGVVKREDLFITSKLWNNRHAPEHVEPALDETLKELGLSYLDLYLIHWPVAFKFTTPDELLPADPTNKDLAYIDDSVKLSDTWKAVVALKKTGKTKSVGVSNFSTRLVDLVEEASGERPAVNQIEAHPLLQQDELVAHHKSKNIVITAYSPLGNNVAGKPPLTENPGIVDAAKRLNHTPAAVLIAWGIQRGYSVLVKSVTPSRIKSNFEQITLSDEEFQRVTNLIKEYGESRNNVPFNYKPSWSIDVFGTQYEAKATHKINA
B3: the “isoelectric point (pI)” value in series [5] is given as 4.7.
